Activity calls are given as the source filed them.
What was measured:
Cytochrome P450 2C9 = Cytochrome P450 2C9 (Homo sapiens, UniProt P11712)
Cytochrome P450 3A4 = Cytochrome P450 3A4 (Homo sapiens, UniProt P08684);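 also: CYP3A4 tested as one member of a cytochrome P450 panel screen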
Hexokinase HKDC1 = target: T1, Hexokinase HKDC1 (Homo sapiens, UniProt Q2TB90); assay: HKDC1 hexokinase activators, dose response, biochemical, W721R variant (AID 504730); format: functional
T1 sequence (Q2TB90 whole entry): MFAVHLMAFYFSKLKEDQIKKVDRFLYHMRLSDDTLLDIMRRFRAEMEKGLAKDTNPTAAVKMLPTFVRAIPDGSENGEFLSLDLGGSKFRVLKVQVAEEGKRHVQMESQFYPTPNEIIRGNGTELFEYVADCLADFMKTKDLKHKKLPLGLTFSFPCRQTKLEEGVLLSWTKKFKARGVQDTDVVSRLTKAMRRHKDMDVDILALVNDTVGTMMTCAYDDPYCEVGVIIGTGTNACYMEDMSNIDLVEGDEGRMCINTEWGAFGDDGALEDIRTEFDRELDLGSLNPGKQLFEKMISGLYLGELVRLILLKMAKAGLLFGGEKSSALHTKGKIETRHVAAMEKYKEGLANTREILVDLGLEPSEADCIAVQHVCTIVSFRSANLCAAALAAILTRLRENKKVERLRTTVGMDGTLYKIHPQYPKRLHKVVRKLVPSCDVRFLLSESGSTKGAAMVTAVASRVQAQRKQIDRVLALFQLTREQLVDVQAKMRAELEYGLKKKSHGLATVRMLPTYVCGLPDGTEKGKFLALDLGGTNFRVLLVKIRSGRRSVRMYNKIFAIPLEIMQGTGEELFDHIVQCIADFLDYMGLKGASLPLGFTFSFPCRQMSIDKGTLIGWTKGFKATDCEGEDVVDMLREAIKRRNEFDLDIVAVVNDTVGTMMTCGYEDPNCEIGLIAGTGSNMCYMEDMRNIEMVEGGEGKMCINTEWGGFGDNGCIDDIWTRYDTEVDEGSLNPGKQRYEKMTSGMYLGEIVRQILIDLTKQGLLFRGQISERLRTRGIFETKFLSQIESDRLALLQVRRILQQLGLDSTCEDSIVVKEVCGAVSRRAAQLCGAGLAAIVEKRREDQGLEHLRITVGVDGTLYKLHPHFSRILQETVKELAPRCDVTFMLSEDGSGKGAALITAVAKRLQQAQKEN

Hexokinase-1 = target: T2, Hexokinase-1 (Homo sapiens, UniProt P19367); assay: hexokinase 1 activators, dose response, selectivity assay for HKDC1 activator project, biochemical (AID 504762); format: functional
T2 sequence (P19367 whole entry): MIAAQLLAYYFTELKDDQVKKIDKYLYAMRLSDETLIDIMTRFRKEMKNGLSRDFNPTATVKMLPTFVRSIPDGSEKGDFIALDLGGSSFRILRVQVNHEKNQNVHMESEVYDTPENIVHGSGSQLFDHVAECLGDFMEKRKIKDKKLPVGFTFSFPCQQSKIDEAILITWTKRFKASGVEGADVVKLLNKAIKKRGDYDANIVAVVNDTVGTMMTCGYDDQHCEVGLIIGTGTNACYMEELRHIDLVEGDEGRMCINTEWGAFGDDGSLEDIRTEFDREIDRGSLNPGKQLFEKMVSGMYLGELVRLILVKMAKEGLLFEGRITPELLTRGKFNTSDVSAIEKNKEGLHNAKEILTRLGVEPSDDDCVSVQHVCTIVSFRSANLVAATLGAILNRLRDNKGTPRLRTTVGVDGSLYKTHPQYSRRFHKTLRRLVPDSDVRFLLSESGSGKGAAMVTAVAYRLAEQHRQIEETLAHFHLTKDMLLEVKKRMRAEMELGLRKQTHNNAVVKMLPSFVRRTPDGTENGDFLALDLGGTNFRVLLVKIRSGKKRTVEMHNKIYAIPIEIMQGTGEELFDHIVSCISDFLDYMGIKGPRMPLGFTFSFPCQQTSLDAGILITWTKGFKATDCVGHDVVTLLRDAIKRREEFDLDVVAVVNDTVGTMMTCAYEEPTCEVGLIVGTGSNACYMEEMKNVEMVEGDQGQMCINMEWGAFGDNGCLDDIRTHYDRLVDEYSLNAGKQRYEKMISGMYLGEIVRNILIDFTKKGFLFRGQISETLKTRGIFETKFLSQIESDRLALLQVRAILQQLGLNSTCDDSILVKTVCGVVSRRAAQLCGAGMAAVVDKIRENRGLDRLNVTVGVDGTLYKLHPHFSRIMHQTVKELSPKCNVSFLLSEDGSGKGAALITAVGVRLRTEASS

Cytochrome P450 2D6 = Cytochrome P450 2D6 (Homo sapiens, UniProt P10635);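 also: CYP2D6 member of a cytochrome P450 panel assay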
Chain of Cytochrome P450 2D6 (P10635 whole entry): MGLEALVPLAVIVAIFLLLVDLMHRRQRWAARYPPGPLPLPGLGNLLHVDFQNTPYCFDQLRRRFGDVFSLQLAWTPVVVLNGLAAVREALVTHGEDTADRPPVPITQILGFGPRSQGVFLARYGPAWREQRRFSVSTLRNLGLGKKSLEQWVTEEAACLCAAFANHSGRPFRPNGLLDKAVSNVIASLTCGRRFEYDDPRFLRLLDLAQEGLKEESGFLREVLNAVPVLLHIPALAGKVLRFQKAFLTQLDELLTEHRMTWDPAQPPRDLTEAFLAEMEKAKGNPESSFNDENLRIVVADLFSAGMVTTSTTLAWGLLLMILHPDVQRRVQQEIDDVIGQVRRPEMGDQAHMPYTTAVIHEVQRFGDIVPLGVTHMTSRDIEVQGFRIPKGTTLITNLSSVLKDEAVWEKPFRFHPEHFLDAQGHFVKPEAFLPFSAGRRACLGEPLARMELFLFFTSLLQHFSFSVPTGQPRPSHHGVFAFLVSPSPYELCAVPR

[1] = target: T3, Corticotropin-releasing factor receptor 2/Corticotropin-releasing factor-binding protein (Homo sapiens, UniProt P24387+Q13324); assay: activators of CRF receptor 2 with binding protein – uHTS hits, confirmation (AID 602473); format: functional; settings: read-out: EC50_Mean
T3 sequence (Q13324 whole entry): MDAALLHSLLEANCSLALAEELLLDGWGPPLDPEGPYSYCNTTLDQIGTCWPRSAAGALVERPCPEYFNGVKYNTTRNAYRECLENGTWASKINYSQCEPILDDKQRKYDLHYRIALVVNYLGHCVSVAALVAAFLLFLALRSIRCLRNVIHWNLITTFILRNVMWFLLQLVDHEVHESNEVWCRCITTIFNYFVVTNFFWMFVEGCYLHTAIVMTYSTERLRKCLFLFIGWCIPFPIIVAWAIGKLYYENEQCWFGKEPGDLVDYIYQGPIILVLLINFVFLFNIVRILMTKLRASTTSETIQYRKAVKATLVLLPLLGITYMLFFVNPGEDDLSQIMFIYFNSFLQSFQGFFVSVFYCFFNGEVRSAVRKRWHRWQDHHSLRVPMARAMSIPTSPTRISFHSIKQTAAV
T3 sequence (P24387 whole entry): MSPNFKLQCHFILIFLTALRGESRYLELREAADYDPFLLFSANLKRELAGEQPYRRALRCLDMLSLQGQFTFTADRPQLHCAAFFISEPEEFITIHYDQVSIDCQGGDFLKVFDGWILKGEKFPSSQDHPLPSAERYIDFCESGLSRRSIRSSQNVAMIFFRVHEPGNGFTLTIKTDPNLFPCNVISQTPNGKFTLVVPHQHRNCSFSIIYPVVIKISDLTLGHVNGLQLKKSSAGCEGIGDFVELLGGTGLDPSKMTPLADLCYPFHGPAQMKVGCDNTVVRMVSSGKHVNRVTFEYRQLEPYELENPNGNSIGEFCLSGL

[2] = target: T4, Endoribonuclease toxin MazF (Escherichia coli K-12, UniProt P0AE70); assay: MazF toxin RNase activators, dose response, biochemical, fluorescence, single-stranded RNA substrate, uHTS hits (AID 588481); format: functional
T4 sequence (P0AE70 whole entry): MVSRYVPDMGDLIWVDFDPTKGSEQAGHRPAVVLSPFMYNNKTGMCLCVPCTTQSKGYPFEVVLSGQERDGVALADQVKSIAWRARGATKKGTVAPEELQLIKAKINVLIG

[3] = target: T4, Endoribonuclease toxin MazF; assay: fluorescent RNA oligo signal without MazF, dose response, counter-screen for MazEF activator project, biochemical, fluorescence, single-stranded RNase substrate (AID 588502); format: functional
Troponin, cardiac muscle = Troponin, cardiac muscle (Homo sapiens, UniProt P19429+P45379+P63316); assay: Fluorescence-based biochemical high throughput dose response assay for activators of the calcium sensitivity of cardiac Regulated Thin Filaments (RTF). [Related pubchem assays (depositor defined):AID493008, AID493018, AID504382, AID504383]; format: protein-complex assay
[4] = target: T5, Mannose-6-phosphate isomerase (Homo sapiens, UniProt P34949); assay: PMI enzyme inhibitors, confirmation, biochemical, fluorescence intensity (AID 1535)
T5 sequence (P34949 whole entry): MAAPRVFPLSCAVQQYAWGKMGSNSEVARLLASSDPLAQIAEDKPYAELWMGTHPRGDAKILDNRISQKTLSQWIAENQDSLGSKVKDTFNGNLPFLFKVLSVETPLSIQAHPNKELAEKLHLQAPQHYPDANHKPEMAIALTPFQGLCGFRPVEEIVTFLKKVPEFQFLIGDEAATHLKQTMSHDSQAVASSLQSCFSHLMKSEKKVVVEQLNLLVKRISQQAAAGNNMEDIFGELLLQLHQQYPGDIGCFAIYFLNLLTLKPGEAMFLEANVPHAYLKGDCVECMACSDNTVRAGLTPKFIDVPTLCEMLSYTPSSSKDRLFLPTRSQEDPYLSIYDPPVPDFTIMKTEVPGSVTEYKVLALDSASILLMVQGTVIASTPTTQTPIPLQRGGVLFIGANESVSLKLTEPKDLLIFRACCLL

Phosphomannomutase 2 = target: T6, Phosphomannomutase 2 (Homo sapiens, UniProt O15305); assay: Counter screen SAR assay for PMM2 inhibitors via a fluorescence intensity assay. [Related pubchem assays (depositor defined):AID1545, AID1574]
T6 sequence (O15305 whole entry): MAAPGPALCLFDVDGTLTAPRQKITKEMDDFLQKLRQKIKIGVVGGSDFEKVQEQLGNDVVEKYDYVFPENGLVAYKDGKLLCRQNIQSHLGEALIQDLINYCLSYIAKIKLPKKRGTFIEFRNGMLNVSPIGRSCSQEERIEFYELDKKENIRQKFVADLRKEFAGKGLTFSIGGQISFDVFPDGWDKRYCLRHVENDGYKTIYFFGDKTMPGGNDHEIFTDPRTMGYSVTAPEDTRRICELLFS

Cytochrome P450 1A2 = target: T7, Cytochrome P450 1A2 (Homo sapiens, UniProt P05177);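 also: PubChem cytochrome P450 panel assay, CYP1A2 panel member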
T7 sequence (P05177 whole entry): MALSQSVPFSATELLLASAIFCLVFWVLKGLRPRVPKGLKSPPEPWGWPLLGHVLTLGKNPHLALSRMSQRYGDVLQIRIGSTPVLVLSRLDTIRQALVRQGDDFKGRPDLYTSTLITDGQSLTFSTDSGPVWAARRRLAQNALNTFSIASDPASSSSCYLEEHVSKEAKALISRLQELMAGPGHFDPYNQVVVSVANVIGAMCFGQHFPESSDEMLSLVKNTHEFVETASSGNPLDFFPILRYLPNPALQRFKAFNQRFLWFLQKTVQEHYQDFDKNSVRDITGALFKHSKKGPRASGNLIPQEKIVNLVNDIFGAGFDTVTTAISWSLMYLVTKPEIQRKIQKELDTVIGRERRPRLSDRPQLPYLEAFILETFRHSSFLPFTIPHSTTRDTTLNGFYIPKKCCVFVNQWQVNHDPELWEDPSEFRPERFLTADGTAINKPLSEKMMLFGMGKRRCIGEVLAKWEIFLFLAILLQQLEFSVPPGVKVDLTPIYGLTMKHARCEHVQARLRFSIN

Cytochrome P450 2C19 = Cytochrome P450 2C19 (Homo sapiens, UniProt P33261); assay: Cytochrome panel assay with activity outcomes. Panel member name: p450-cyp2c19 Compounds with AC50 equal or less than 10 uM are considered active; format: functional; settings: read-out: AC50
Chain of Cytochrome P450 2C19 (P33261 whole entry): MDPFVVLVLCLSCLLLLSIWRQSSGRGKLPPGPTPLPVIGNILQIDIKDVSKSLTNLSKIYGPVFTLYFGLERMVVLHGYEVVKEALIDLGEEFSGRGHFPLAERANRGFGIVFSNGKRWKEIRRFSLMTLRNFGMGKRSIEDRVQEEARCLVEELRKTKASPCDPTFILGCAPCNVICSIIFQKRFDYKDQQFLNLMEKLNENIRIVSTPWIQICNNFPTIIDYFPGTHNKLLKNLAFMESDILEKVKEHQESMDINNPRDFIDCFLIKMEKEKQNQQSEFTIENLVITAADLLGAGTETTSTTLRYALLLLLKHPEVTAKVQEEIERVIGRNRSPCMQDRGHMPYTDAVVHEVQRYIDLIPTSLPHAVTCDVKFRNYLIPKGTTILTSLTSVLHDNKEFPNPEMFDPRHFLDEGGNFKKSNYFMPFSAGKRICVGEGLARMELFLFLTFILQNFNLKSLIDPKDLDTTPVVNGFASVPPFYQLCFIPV

Vero = assay: cells; format: functional; settings: Chlorocebus sabaeus

Chain of Cytochrome P450 2C9 (P11712 whole entry): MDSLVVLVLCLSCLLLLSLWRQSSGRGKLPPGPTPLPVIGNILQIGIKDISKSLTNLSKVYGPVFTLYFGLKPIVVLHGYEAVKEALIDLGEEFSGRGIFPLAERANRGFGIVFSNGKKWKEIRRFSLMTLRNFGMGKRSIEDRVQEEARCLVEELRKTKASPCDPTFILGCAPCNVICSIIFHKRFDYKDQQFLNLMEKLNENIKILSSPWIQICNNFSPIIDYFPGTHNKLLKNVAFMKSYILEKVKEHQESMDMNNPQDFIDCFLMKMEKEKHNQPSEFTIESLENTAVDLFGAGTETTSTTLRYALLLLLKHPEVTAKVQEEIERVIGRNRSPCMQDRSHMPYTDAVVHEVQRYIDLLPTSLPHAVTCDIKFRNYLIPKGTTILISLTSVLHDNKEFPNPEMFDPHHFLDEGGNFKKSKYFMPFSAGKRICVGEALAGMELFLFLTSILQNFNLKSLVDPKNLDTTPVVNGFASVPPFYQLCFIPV
Chain of Cytochrome P450 3A4 (P08684 whole entry): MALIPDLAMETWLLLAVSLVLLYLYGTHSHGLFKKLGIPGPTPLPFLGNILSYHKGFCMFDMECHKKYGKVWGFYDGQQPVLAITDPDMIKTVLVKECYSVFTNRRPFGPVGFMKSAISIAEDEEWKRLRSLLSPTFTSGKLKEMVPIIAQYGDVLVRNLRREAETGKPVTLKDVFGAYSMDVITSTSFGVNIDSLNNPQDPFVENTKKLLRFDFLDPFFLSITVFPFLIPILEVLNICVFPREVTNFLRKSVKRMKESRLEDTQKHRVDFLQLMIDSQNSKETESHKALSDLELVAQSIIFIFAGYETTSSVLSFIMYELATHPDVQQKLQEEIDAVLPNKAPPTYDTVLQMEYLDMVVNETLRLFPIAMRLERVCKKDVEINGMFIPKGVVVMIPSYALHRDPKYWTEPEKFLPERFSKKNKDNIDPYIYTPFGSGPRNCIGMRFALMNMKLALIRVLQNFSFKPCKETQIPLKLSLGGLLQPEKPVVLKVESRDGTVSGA

SMILES: Cc1cc2cc(CNC(=O)CC(C)C)ccc2n1C
- AC50 (Cytochrome P450 2C9): inconclusive
- AC50 (Cytochrome P450 3A4): 15.8 µM (inconclusive)

SMILES: CCOC(=O)c1c(C)[nH]c(C2=NN=C(Nc3ccccc3)SC2)c1C
- EC50 (Hexokinase HKDC1): 24.3 µM (inactive)
- EC50 (Hexokinase-1): 18.2 µM (active)

SMILES: COc1ccc(OC)c(S(=O)(=O)N2CCC(C(=O)NCCc3ccccc3)CC2)c1
- AC50 (Cytochrome P450 2C9): inconclusive
- AC50 (Cytochrome P450 3A4): 39.8 µM (inconclusive)
- AC50 (Cytochrome P450 2D6): 2.24 µM (inconclusive)

SMILES: COc1ccc(OC)c(/C=C2\N=C(c3ccccc3)OC2=O)c1
- EC50 [1]: 2.29 µM (active)
- EC50 [2]: > 99 µM (inactive)
- EC50 [3]: 39.1 µM (inactive)
- EC50 (Troponin, cardiac muscle): 2.58 µM (active)

SMILES: Cc1cc2n(n1)SC(Nc1cccc3ccccc13)N2 (centres undefined)
- IC50 [4]: > 50 µM (inactive)
- IC50 (Phosphomannomutase 2): > 100 µM (inactive)

SMILES: COC(=O)c1ccccc1NC(=O)C(CCS(C)(=O)=O)NC(C)=O (centres undefined)
- AC50 (Cytochrome P450 2C9): inconclusive
- AC50 (Cytochrome P450 1A2): 20 µM (inconclusive)
- AC50 (Cytochrome P450 2C19): 39.8 µM (inconclusive)

SMILES: Cn1c(SSc2ccc(-c3cccnc3)n2C)ccc1-c1cccnc1
- EC50 (Hexokinase HKDC1): 14.8 µM (active)
- EC50 (Hexokinase-1): 14.2 µM (active)
- CC50 (Vero): 16.8 µM (active)
